From ChEMBL document CHEMBL4229562, “Introduction of a Methyl Group Curbs Metabolism of Pyrido[3,4- d]pyrimidine Monopolar Spindle 1 (MPS1) Inhibitors and Enables the Discovery of the Phase 1 Clinical Candidate N2-(2-Ethoxy-4-(4-methyl-4 H-1,2,4-triazol-3-yl)phenyl)-6-methyl- N8-neopentylpyrido[3,4- d]pyrimidine-2,8-diamine …” (J Med Chem, 2018)
Values after ≈ are worked out from the molar mass of the structure shown.

How the values were obtained:
[1] = Intrinsic clearance in CD1 mouse liver microsomes assessed per mg protein at 1 uM preincubated for 10 mins followed NADPH/UDP-glucuronic acid addition and measured after 30 mins by LC-MS/MS analysis; assay type: ADME, microsome; conditions: 0.5 h
[2] = Intrinsic clearance in human liver microsomes assessed per mg protein at 1 uM preincubated for 10 mins followed NADPH/UDP-glucuronic acid addition and measured after 30 mins by LC-MS/MS analysis; assay type: ADME, microsome; conditions: 0.5 h
[3] = system: Mus musculus; assay: Half life in mouse at 5 mg/kg, iv by ESI-LCMS/MS analysis; assay type: ADME, organism-based; conditions: in vivo
[4] = system: Rattus norvegicus; assay: Half life in rat at 1 mg/kg, iv by ESI-LCMS/MS analysis; assay type: ADME, organism-based; conditions: in vivo
[5] = Clearance in mouse at 5 mg/kg, iv by ESI-LCMS/MS analysis; assay type: ADME, organism-based; conditions: in vivo
[6] = Cmax in rat at 5 mg/kg, po by ESI-LCMS/MS analysis; assay type: ADME, organism-based; parameters: dose 5 mg/kg, route oral; conditions: in vivo
[7] = Cmax in mouse at 5 mg/kg, po by ESI-LCMS/MS analysis; assay type: ADME, organism-based; parameters: dose 5 mg/kg, route oral; conditions: in vivo
[8] = AUClast in mouse at 5 mg/kg, po measured after 6 hrs by ESI-LCMS/MS analysis; assay type: ADME, organism-based; conditions: in vivo
[9] = Protein binding in mouse plasma; assay type: ADME, cell-free
[10] = Volume of distribution at steady state in mouse at 5 mg/kg, iv by ESI-LCMS/MS analysis; assay type: ADME, organism-based; conditions: in vivo, read-out: Vdss
[11] = Volume of distribution at steady state in rat at 1 mg/kg, iv by ESI-LCMS/MS analysis; assay type: ADME, organism-based; conditions: in vivo, read-out: Vdss
[12] = system: Mus musculus; assay: Oral bioavailability in mouse at 5 mg/kg by ESI-LCMS/MS analysis; assay type: ADME, organism-based; conditions: in vivo
[13] = system: Rattus norvegicus; assay: Oral bioavailability in rat at 5 mg/kg by ESI-LCMS/MS analysis; assay type: ADME, organism-based; conditions: in vivo
[14] = Lipophilicity, log P of the compound; assay type: physicochemical; conditions: octanol/water
[15] = biological target: T1, Dual specificity protein kinase TTK (Homo sapiens, UniProt P33981)
T1 sequence (P33981 whole entry): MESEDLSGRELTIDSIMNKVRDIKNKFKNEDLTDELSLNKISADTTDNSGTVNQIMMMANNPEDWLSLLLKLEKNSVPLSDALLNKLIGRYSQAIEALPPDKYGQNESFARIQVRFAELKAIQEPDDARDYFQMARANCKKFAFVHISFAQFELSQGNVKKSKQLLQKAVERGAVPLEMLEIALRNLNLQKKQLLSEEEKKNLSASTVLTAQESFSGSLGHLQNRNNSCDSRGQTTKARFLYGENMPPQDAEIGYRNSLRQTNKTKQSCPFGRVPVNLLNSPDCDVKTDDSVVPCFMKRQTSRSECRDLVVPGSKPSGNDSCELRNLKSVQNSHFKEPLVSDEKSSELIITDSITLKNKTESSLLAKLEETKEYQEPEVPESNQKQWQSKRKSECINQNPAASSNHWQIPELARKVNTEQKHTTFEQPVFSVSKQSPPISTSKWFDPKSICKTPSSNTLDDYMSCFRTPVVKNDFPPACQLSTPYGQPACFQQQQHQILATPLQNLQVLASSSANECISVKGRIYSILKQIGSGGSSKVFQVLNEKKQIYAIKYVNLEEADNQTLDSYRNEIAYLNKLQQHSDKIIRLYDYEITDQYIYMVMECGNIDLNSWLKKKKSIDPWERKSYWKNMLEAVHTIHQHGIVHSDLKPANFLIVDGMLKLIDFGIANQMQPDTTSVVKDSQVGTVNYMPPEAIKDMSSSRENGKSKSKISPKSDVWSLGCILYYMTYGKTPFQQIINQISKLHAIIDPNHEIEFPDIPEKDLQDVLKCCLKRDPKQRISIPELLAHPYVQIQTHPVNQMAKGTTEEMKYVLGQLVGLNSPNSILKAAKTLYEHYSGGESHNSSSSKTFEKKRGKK
Description: Inhibition of full length human N-terminal 6xHis-tagged MPS1 expressed in baculovirus expression system using 5FAM-H236 peptide as substrate after 60 to 90 mins by caliper assay

[16] = biological target: CDK2/Cyclin A2 (Homo sapiens, UniProt P24941)
[17] = biological target: T1, Dual specificity protein kinase TTK; remark: listed apart in the source
Description: Inhibition of MPS1 autophosphorylation at Thr33/Ser37 in human HCT116 cells after 2 hrs by MSD assay

[18] = Drug metabolism in human liver microsomes assessed as 5-(3-methoxy-4-(8-(neopentylamino)pyrido[3,4-d]pyrimidin-2-ylamino)phenyl)-4-methyl-4H-1,2,4-triazol-3-ol formation at 1 uM preincubated for 10 mins followed NADPH/UDP-glucuronic acid addition and measured after 30 mins by LC-MS/MS analysis; assay type: ADME, microsome; conditions: 0.5 h
[19] = Solubility of the compound in PBS buffer at pH 7.4 by HPLC analysis; assay type: physicochemical
[20] = Drug metabolism in human liver microsomes assessed as 1-(2-(2-methoxy-4-(4-methyl-4H-1,2,4-triazol-3-yl)phenylamino)-6-methylpyrido[3,4-d]pyrimidin-8-ylamino)-2,2-dimethylpropan-1-ol formation at 1 uM preincubated for 10 mins followed NADPH/UDP-glucuronic acid addition and measured after 30 mins by LC-MS/MS analysis; assay type: ADME, microsome; conditions: 0.5 h
[21] = Drug level in human liver microsomes treated with 1 uM N2-(2-Methoxy-4-(4-methyl-4H-1,2,4-triazol-3-yl)phenyl)-N8-neopentylpyrido[3,4-d]pyrimidine-2,8-diamine assessed as compound formation preincubated for 10 mins followed NADPH/UDP-glucuronic acid addition and measured after 30 mins by LC-MS/MS analysis; assay type: ADME, microsome; conditions: 0.5 h
[22] = Drug level in human liver microsomes treated with 1 uM N2-(2-Methoxy-4-(4-methyl-4H-1,2,4-triazol-3-yl)phenyl)-6-methyl-N8-neopentylpyrido[3,4-d]pyrimidine-2,8-diamine assessed as compound formation preincubated for 10 mins followed NADPH/UDP-glucuronic acid addition and measured after 30 mins by LC-MS/MS analysis; assay type: ADME, microsome; conditions: 0.5 h

CLH [1] [µL/min/mg]	CLH [2] [µL/min/mg]	logP [14]	IC50 [15] [nM]	Ki [15] [nM]	IC50 [16] [nM]	Ki [16] [nM]	IC50 [17] [nM]	solubility [19] [µM]	Compound	other results
–	–	4.27	–	–	–	–	–	–	COc1cc(-c2cnn(C)c2)ccc1Nc1ncc2ccnc(NCC(C)(C)C)c2n1	–
–	–	3.58	83	0.82	1100	550	370	–	CCOc1cc(-c2nncn2C)ccc1Nc1ncc2cc(C)nc(N3CCCC3)c2n1	–
41.1	23.8	3.88	13	0.13	130	65	30	8.6 (≈ 3.72 µg/mL)	COc1cc(-c2nncn2C)ccc1Nc1ncc2cc(C)nc(NCC(C)(C)C)c2n1	Drug metabolism [20]: Metabolite_Detected
24.7	5.6	3.25	20	0.2	2700	1400	110	6.8 (≈ 3.1 µg/mL)	CCOc1cc(-c2nncn2C)ccc1Nc1ncc2cc(C)nc(N3CC(C)(C#N)C3)c2n1	–

Second part, the compound before the results:

Compound	CLH [1] [µL/min/mg]	CLH [2] [µL/min/mg]	logP [14]	IC50 [15] [nM]	Ki [15] [nM]	IC50 [16] [nM]	Ki [16] [nM]	IC50 [17] [nM]	solubility [19] [µM]	other results
CCOc1cc(-c2nncn2C)ccc1Nc1ncc2cc(C)nc(N[C@@H](C)C(C)(C)C)c2n1	25.3	15.2	4.61	4.7	0.047	150	77	23	–	t1/2 [3]: 3.47 h; t1/2 [4]: 4.52 h; clearance [5]: 8.4 mL/min/kg; Cmax [6]: 1890 nM; Cmax [7]: 2920 nM; AUC(0-t) at 6 h [8]: 13.8 µM·h; PPB [9]: 99.91%; Vd [10]: 2.19 L/kg; Vd [11]: 1.88 L/kg; F [12]: 86%; F [13]: 92%
CCOc1cc(-c2nnc3n2CCC3)ccc1Nc1ncc2cc(C)nc(NCC(C)(C)C)c2n1	36.4	18.6	4.75	38	0.38	> 10000	> 5000	250	–	–
COc1cc(-c2nncn2C)ccc1Nc1ncc2ccnc(NCC(C)(C)C)c2n1	81.5	92.1	3.6	–	≤ 0.07	16	8	3.5	–	Drug metabolism [18]: Metabolite_Detected
COc1cc(-c2nnc(O)n2C)ccc1Nc1ncc2ccnc(NCC(C)(C)C)c2n1	–	–	–	–	–	–	–	–	–	Drug uptake [21]: Active
COc1cc(-c2nncn2C)ccc1Nc1ncc2cc(C)nc(NC(O)C(C)(C)C)c2n1 (configuration not stated)	–	–	–	–	–	–	–	–	–	Drug uptake [22]: Active
CCOc1cc(-c2nnc(C)n2C)ccc1Nc1ncc2cc(C)nc(NCC(C)(C)C)c2n1	32.9	20.4	4.49	12	0.12	940	470	33	1.8 (≈ 0.829 µg/mL)	–
